Data taken from patent US20190077774A1, “PEROXISOME PROLIFERATOR-ACTIVATED RECEPTOR AGONISTS” (City of Hope, priority 2017, published 2019).
“And” between values parts separate entries of the source, which are not always exact repeats. Equal entries are not always repeated. “Also recorded” adds a separate entry of the source.

Key:
human PPARα = target: T1, human PPARα (Homo sapiens, UniProt Q07869); assay: PPAR-GAL4 transactivation assay in transiently transfected CV-1 cells; type: cell-based
T1 construct: expressed in transfected cells; host or cells: CV-1 (monkey kidney) cells, transient transfection
T1 sequence (Q07869 159-468): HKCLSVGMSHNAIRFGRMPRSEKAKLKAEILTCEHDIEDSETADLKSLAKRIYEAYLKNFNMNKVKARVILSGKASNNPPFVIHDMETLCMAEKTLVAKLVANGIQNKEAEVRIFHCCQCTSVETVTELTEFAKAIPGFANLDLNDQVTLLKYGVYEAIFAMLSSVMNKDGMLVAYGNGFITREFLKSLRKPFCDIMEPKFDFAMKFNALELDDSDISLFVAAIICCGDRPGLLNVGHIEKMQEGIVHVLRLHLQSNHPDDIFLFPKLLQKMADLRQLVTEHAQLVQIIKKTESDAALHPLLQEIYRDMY
Procedure: To assess the functional transcriptional activity of these compounds, cell-based assays using chimeric receptor Gal4 DNA-binding domain (DBD)-NR ligand binding domain cotransfection assay (LBDs of PPARα, PPARγ, and PPARδ) were performed. As an initial screen to determine the PPARα activity and selectivity, all compounds were evaluated for in vitro potency and selectivity by transfection testing, using CV-1 cells transfected with human and mouse PPARs. MH100×4 is a luciferase reporter with four copies of a GAL4 UASG response element, where GAL-I refers to the ligand-binding domain of the indicated receptor fused to the C-terminus of the GAL4 DNA-binding domain. Assays were performed using a Biomek automated workstation in which the genes for the nuclear receptor, as well as a plasmid containing a response element upstream of a luciferase cDNA, are transfected into CV-1 cells. Compounds were evaluated for their ability to activate human and mouse PPARs at […] test concentrations. […] The transactivation activity of the series of compounds (DY121-132, 10a-g) toward PPARα was expressed as EC50, which is the concentration of the test compound that affords half-maximum activity, as summarized in Table 1.
Cell-based reporter gene assays Cell based transactivation assays were performed in CV 1 cells as described (Forman, et al.). PPARα activity was assayed with a GAL4 reporter construct and fusion proteins containing the ligand binding domains of human PPARα, human PPARγ and human PPARδ linked to the DNA binding domain of yeast GAL4. Reporter constructs (300 ng/10^5 cells) and cytomegalovirus-driven expression vectors (20-50 ng/10^5 cells) were added as indicated along with CMX-b-gal (500 ng/10^5 cells) as an internal control. Cells were transiently transfected by Lipofectamine as described. Cells were incubated with DNA complexed liposomes for 2 h and subsequently treated for approximately 45 h with phenol red free DMEM FBS containing the indicated compounds. After exposure to ligand, the cells were harvested and assayed for luciferase and β-galactosidase activity. All points were assayed in triplicate and varied by less than 15%. Each experiment was repeated three or more times with similar results. Fold activation is reported.
In vitro binding and transfection studies. As an initial screen to determine the PPARα, PPARγ, and PPARδ activity, all compounds were evaluated for in vitro potency and selectivity by transfection testing, using CV-1 cells transfected with human and mouse PPARs. MH100×4 is a luciferase reporter with four copies of a GAL4 USAG response element, where GAL-I refers to the ligand-binding domain of the indicated receptor fused to the C-terminus of the GAL4 DNA-binding domain. Assays were performed using a Biomek automated workstation in which the gene for the nuclear receptor, as well as a plasmid containing a response element upstream of a luciferase cDNA, are transfected into CV-1 cells. Compounds were evaluated for their ability to activate human PPARs at 1, 2.5, 3, and 5 uM test concentrations.
Compounds were screened for agonist activity towards PPAR-GAL4 chimeric receptors in transiently transfected CV-1 cells as described. EC50 is the concentration of test compound that gave 50% maximum efficacy.

C57Bl/6J female mice = assay: Serum triglyceride and lipid effects in C57Bl/6J female mice; type: in vivo
Procedure: FIG. 5. Ligand Screening Results: DY series compounds and controls administered once to C57Bl/6J female mice at 8 weeks of age. Mice were treated at 3 mg/kg for all compounds except WY14643 (100 mg/kg). Compounds gavaged at 0900; mice sacrificed 24 h later. Ordered by degree of effect on triglyceride lowering. According to our screening test, DY series compounds reduce triglycerides.
Next, we would like to investigate the therapeutic potential of DY121 to see if it could be candidate for treating NAFLD/NASH. Note that the pathogenesis of NASH has not yet been fully elucidated so far; however, the ‘two-hit’ theory is widely accepted. The first hit is the accumulation of fatty acids in the liver to cause steatosis. […] The newly produced PPARα agonist DY121 and its analogs, as well as WY100=WY14643 and GW3 (GW7647), were evaluated in C57Bl/6J female mice for their ability to alter serum triglyceride, liver gene expression, and glucose. Fibric acid derivatives (100 mg/kg/day) was used as a control, WY100 (WY14, 643, 100 mg/kg/day), GW3 (GW7647-positive control, 3 mg/kg/day), DY121 (˜3 mg/kg/day), respectively. DY series compounds and controls administered once to C57Bl/6J female mice at 8 weeks of age. Mice were treated at 3 mg/kg for all compounds except WY14643 (100 mg/kg).

For `COc1ccc(Cn2c(CCCc3ccc(OC(C)(C)C(=O)O)cc3)nn(Cc3ccc(C)cc3)c2=O)cc1` [10a, 2-(4-{3-[4-(4-Methoxy-benzyl)-1-(4-methyl-benzyl)-5-oxo-4,5-dihydro-1H[1,2,4]triazol-3-yl]-propyl}-phenoxy)-2-methyl-propionic acid], the “fold greater PPARα agonistic activity compared to LY518674” value (human PPARα) was 42 fold, the EC50 (human PPARα; PPAR-GAL4 chimeric receptor, CV-1 cells, read-out: EC50(nM) hPPARα) was 0.85 nM and 1 nM and the “selectivity over PPARγ and PPARδ” value (human PPARα; PPAR-GAL4 transactivation assays) was “excellent selectivity”. The “hepatic TG accumulation” value (C57Bl/6J female mice; 3 mg/kg DY121, WY14643 100 mg/kg) was “suppressed; also recorded: more apparent” and the “serum triglyceride (TG) concentrations” value (C57Bl/6J female mice; DY121-treated mice vs control) was “significantly decreased”.
